In PubChem BioAssay (NCI):
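Five compound concentrations were applied to cells in 96-well plates for 48 hours; endpoints were derived by simple linear interpolation of the resulting dose-response curve. GI50 = concentration required for 50% inhibition of growth. Definition used: TGI = concentration required for complete inhibition of growth.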

Tests used:
Assay in all cases: DTP human tumour cell line panel, 48 h
[1] = test system: A498 renal
[2] = test system: COLO 205 colon
[3] = test system: HOP-92 NSCLC
[4] = test system: KM12 colon
[5] = test system: LOX IMVI melanoma
[6] = test system: OVCAR-8 ovarian
[7] = test system: RPMI-8226 leukemia
[8] = test system: SNB-75 CNS
[9] = test system: TK-10 renal
[10] = test system: IGROV1 ovarian

SMILES | TGI [1] [µM] | TGI [2] [µM] | TGI [3] [µM] | TGI [4] [µM] | TGI [5] [µM] | TGI [6] [µM] | TGI [7] [µM] | TGI [8] [µM] | TGI [9] [µM] | GI50 [1] [µM] | GI50 [2] [µM] | GI50 [3] [µM] | GI50 [10] [µM] | TGI [10] [µM] | GI50 [4] [µM] | GI50 [5] [µM] | GI50 [7] [µM] | GI50 [8] [µM] | GI50 [9] [µM] | GI50 [6] [µM]
c1ccc(CN(Cn2cccn2)Cn2cccn2)nc1 | > 100 | > 100 | > 100 | > 100 | > 100 | > 100 | 78.8 | > 100 | > 100 | – | – | – | – | – | – | – | – | – | – | –
Cc1nc(NC(=O)CCCN2C(=O)c3cccc4cccc(c34)C2=O)sc1C(=O)Nc1cc(C(=O)NCCCN(C)C)n(C)c1 | > 100 | > 100 | > 100 | > 100 | > 100 | – | > 100 | > 100 | > 100 | > 100 | > 100 | > 100 | > 100 | > 100 | > 100 | > 100 | > 100 | > 100 | > 100 | –
CC12CCC[C@@](C)(C(=O)OC3OC(CO)C(O)C(O)C3O)[C@H]1CCC13CC4CC(OC4(CO)[C@H]1O)[C@@H]23 (some centres not stated) | > 100 | – | > 100 | > 100 | – | > 100 | > 100 | > 100 | > 100 | – | – | – | – | > 100 | – | – | – | – | – | –
CC1=C(C(=O)Nc2ccc(Cl)c(Cl)c2)C(c2ccco2)C(C(=O)Nc2ccc(Cl)c(Cl)c2)=C(C)N1 | 26.6 | 25.7 | 31.2 | 27.3 | – | 24.3 | 38.4 | 31.5 | 18.9 | – | – | – | – | 32.6 | – | – | – | – | – | –
CC(=O)N=c1ccc2nc3c(cc(N)c4ccccc43)oc-2c1 | 6.87 | 2.44 | 4.94 | 2.87 | – | 3.6 | 1.76 | 3.34 | 6.34 | 1.92 | 1.11 | 1.4 | 0.36 | 1.89 | 1.44 | – | 0.302 | 1.83 | 2.64 | 1.31
CC(C)=CC(=O)Cc1nc2cc(C)c(C)cc2[nH]c1=O | > 100 | > 100 | 99.7 | > 100 | > 100 | – | > 100 | > 100 | > 100 | – | – | – | – | > 100 | – | – | – | – | – | –
CN(C)CCNC(=O)c1cccc2[nH]c(-c3ccccc3)nc12 | 26.7 | 24.7 | 42.1 | 66.4 | 29.7 | – | 91.5 | 75.3 | 59.9 | – | – | – | – | 50.9 | – | – | – | – | – | –
C=C(C)[C@@H]1CC[C@]2(C)[C@H](CC[C@@H]3[C@H]4[C@H]5OC[C@@]4(CCC5(C)C)CC[C@]32C)[C@@]1(C)CCCN | 3.12 | 4.65 | 2.79 | 3.33 | 0.489 | – | 5.09 | 3.11 | 3.2 | 1.72 | 2.15 | 1.37 | 1.8 | 3.36 | 1.78 | 0.0275 | 2.05 | 1.53 | 1.55 | –
COc1ccc(-c2ccc(C3CC(c4ccc(Cl)cc4)=NN3)o2)c([N+](=O)[O-])c1 (configuration not stated) | > 100 | > 100 | > 100 | – | > 100 | > 100 | > 100 | > 100 | > 100 | > 100 | > 100 | > 100 | > 100 | > 100 | – | > 100 | > 100 | > 100 | > 100 | > 100
CCN(CC)C(=O)COc1ccc(Br)cc1Br | > 100 | > 100 | > 100 | > 100 | > 100 | – | > 100 | > 100 | > 100 | – | – | – | – | – | – | – | – | – | – | –
CCCc1nc2c(C)cc(-c3nc4ccccc4n3C)cc2n1Cc1ccc(-c2ccccc2C(=O)O)cc1 | > 100 | > 100 | > 100 | – | > 100 | > 100 | 95.9 | > 100 | > 100 | 20.4 | 42.4 | 25.7 | 43.5 | > 100 | – | 23.2 | 17.3 | 56 | 55.8 | 35.4
COc1ccc2nc3ccccc3c(NCCCCCCN(C)CCCl)c2c1 | 2.53 | 1.52 | 1.33 | 1.44 | 0.515 | 1.81 | 1.19 | 2.73 | 4.91 | – | – | – | – | – | – | – | – | – | – | –
COc1ccc(C2=NN(C(C)=O)C(c3cn(-c4ccccc4)nc3-c3ccc(Cl)cc3)C2)cc1 (configuration not stated) | > 100 | > 100 | > 100 | > 100 | > 100 | – | > 100 | > 100 | – | 99.5 | > 100 | 2.4 | > 100 | > 100 | > 100 | > 100 | > 100 | 9.08 | – | –
